Data reported in BigSolDB 2.1.

CC(=O)c1c(C)cc(C(C)(C)C)cc1C
solubility (mole fraction)
Conditions	in acetone	in acetonitrile	in cyclohexane	in ethanol	in ethyl acetate	in isopropanol	in methanol	in n-octanol
273.15 K	0.308	0.188	0.279	0.0701	0.376	0.073	0.0607	0.123
278.15 K	0.346	0.235	0.337	0.095	0.427	0.101	0.0828	0.161
283.15 K	0.393	0.291	0.407	0.14	0.479	0.146	0.116	0.205
288.15 K	0.445	0.355	0.48	0.196	0.539	0.206	0.16	0.27
293.15 K	0.505	0.428	0.56	0.27	0.603	0.288	0.228	0.354
298.15 K	0.568	0.521	0.645	0.37	0.673	0.391	0.339	0.46
303.15 K	0.64	0.623	0.735	0.52	0.741	0.542	0.478	0.6
308.15 K	0.728	0.739	0.832	0.705	0.817	0.729	0.667	0.761
